One assay concerns the target T1, human GLP-1 receptor (Homo sapiens, UniProt P43220).
T1 construct: expressed in transfected cells; host or cells: BHK (Baby Hamster Kidney) cells, clone BHK 467-12A KZ-10, stably transfected, with CRE-luciferase reporter
Description: Human GLP-1 receptor in vitro potency assay (CRE-luciferase reporter, BHK cells). In kind it is cell-based. To be noted: Table 4a; BHK cells expressing human GLP-1R, CRE-Luc, 3 hours; read-out: Human GLP-1R potency [EC50 (pM)].

Assay [1] has as its target T2, human amylin receptor (hAmyR3) (Homo sapiens, UniProt O60896+P30988).
T2 construct: host or cells: BHK cells (Hollex-1 line: human calcitonin receptor (a) + CRE-Luc), further transfected with human RAMP3
Description: Human amylin receptor in vitro potency assay (CRE-luciferase reporter, BHK cells).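 For all read-outs here: BHK cells expressing human calcitonin receptor plus RAMP3 (amylin-3 receptor) with a CRE-luciferase reporter, agonist activity read as luminescence from cAMP-driven transcription, 7-point serial dilutions.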 The note with it: for EC50: Table 4a, BHK hAmyR3/CRE-Luc cells, 3 hours, read-out: Human AmyR3 potency [EC50 (pM)]. The assay is classed as cell-based.

Starred links: 1 amine or outer side, 2 acyl side, 3 side chain; linkers in the order of their positions; H or OH if unused. Positions of bridges follow the written chain, without caps; N, C: chain ends. Non-standard residues stand in square brackets, D forms with d. Groups on a side chain read outwards from the residue. *: point of attachment. X1 = O=C(O)CCCCCCCCCCCCCCC(=O)N[C@@H](CCC(=O)NCCOCCOCC(=O)NCCOCCOCC(=O)NCCCC[C@H](NC(=O)COCCOCCNC(=O)COCCOCCNC(=O)CC[C@H](NC(=O)CCCCCCCCCCCCCCC(=O)O)C(=O)O)C(=O)*)C(=O)O; Hexadecanoyl(16-SO3H) = O=C(CCCCCCCCCCCCCCCS(=O)(=O)O)*; C20 diacid = O=C(O)CCCCCCCCCCCCCCCCCCC(=O)*; C18 diacid = O=C(O)CCCCCCCCCCCCCCCCC(=O)*; C16 diacid = O=C(O)CCCCCCCCCCCCCCC(=O)*; γGlu = O=C(O)[C@H](CCC(=O)[*:2])N[*:1]; εLys = N[C@@H](CCCCN[*:1])C(=O)[*:2]; AEEA = NCCOCCOCC(=O)O; Aib = CC(C)(N)C(=O)O

T1 sequence (P43220 24-463): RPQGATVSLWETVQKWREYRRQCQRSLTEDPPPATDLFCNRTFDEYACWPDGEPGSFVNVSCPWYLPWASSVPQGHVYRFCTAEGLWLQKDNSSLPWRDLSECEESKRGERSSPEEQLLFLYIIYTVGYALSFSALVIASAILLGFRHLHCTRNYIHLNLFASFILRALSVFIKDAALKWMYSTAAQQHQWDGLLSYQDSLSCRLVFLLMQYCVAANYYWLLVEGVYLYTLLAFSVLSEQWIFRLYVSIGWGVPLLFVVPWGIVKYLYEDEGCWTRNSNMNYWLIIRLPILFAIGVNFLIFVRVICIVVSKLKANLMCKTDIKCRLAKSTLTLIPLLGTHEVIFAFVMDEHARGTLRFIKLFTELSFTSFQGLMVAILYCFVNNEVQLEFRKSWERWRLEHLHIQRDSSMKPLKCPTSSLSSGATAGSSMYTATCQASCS
T2 sequence (P30988 25-474): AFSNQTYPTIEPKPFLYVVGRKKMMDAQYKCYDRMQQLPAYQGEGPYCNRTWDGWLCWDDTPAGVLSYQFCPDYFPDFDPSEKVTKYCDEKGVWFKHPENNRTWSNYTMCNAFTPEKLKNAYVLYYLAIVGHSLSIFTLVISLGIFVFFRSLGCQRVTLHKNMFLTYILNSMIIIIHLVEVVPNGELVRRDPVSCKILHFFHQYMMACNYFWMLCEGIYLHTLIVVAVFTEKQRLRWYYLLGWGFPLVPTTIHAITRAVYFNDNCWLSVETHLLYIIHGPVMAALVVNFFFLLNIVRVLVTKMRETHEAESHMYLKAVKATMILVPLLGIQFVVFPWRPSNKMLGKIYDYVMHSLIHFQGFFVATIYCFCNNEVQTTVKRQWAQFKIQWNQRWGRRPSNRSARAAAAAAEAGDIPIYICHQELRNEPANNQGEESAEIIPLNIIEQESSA
T2 sequence (O60896 24-148): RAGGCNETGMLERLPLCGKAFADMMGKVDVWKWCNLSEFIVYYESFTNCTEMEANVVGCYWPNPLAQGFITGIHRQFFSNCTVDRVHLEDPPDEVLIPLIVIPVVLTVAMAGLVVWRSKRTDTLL

“H-H[Aib]EGTFTSDVSSYLEEQAARK([AEEA-AEEA-γGlu-C20 diacid])FIEWLVRGASELSTAALGRLSAELHELATLPRTETGSGSP-NH2 [Compound 0581]”: the half-maximal effective concentration (EC50) on human GLP-1 receptor turned out to be 17 pM; in assay [1], 26.4 pM.
On the same counts, the results for “H-H[Aib]EGTFTSDVSSYLEGQAAK([AEEA-AEEA-γGlu-C20 diacid])EFIAWLVRGRGGGGGGGGGEASELSTAALGRLSAELHELATLPRTETGSGSP-NH2 [Compound 0094]” are 7.5 pM and 11.3 pM.
On the same counts, the results for “H-H[Aib]EGTFTSDVSSYLEGQAAK([AEEA-AEEA-γGlu-C18 diacid])EFIAWLVRGRGQAPGQEPEASELSTAALGRLSAELHELATLPRTETGSGSP-NH2 [Compound 0156]” are 22.6 pM and 22.6 pM.
The corresponding values for “H-H[Aib]EGTFTSDVSSYLEEQAAREFIAWLVRGK([AEEA-AEEA-γGlu-C16 diacid])GGGGGEASELSTAALGRLSAELHELK([AEEA-AEEA-γGlu-C16 diacid])TLPRTETGSGSP-NH2 [Compound 0281]” are 35.2 pM and 114 pM.
As to “H-H[Aib]EGTFTSDVSSYLEGQAAK([εLys-AEEA-AEEA-γGlu-C18 diacid])EFIAWLVRGRGGGGGGGGGEASELSTAALGRLSAELHELATLPRTETGSGSP-NH2 [Compound 0159]”, the EC50 on human GLP-1 receptor stood at 30.3 pM; in assay [1] it was 19.3 pM.
The corresponding values for `CC[C@H](C)[C@H](NC(=O)[C@H](Cc1ccccc1)NC(=O)[C@H](CCCCNC(=O)COCCOCCNC(=O)COCCOCCNC(=O)CC[C@H](NC(=O)CCCCCCCCCCCCCCC(=O)O)C(=O)O)NC(=O)[C@H](CCCNC(=N)N)NC(=O)[C@H](C)NC(=O)[C@H](C)NC(=O)[C@H](CCC(N)=O)NC(=O)[C@H](CCC(=O)O)NC(=O)[C@H](CCC(=O)O)NC(=O)[C@H](CC(C)C)NC(=O)[C@H](Cc1ccc(O)cc1)NC(=O)[C@H](CO)NC(=O)[C@H](CO)NC(=O)[C@@H](NC(=O)[C@H](CC(=O)O)NC(=O)[C@H](CO)NC(=O)[C@@H](NC(=O)[C@H](Cc1ccccc1)NC(=O)[C@@H](NC(=O)CNC(=O)[C@H](CCC(=O)O)NC(=O)C(C)(C)NC(=O)[C@@H](N)Cc1c[nH]cn1)[C@@H](C)O)[C@@H](C)O)C(C)C)C(=O)N[C@@H](CCC(=O)O)C(=O)N[C@@H](Cc1c[nH]c2ccccc12)C(=O)N[C@@H](CC(C)C)C(=O)N[C@H](C(=O)N[C@@H](CCCNC(=N)N)C(=O)NCC(=O)N[C@@H](CCCCNC(=O)COCCOCCNC(=O)COCCOCCNC(=O)CC[C@H](NC(=O)CCCCCCCCCCCCCCC(=O)O)C(=O)O)C(=O)NCC(=O)N[C@@H](CCC(=O)O)C(=O)NCC(=O)N[C@@H](CCC(N)=O)C(=O)N[C@@H](CCC(=O)O)C(=O)N1CCC[C@H]1C(=O)NCC(=O)NCC(=O)N[C@@H](C)C(=O)N[C@@H](CO)C(=O)N[C@@H](CCC(=O)O)C(=O)N[C@@H](CC(C)C)C(=O)N[C@@H](CO)C(=O)N[C@H](C(=O)N[C@@H](C)C(=O)N[C@@H](C)C(=O)N[C@@H](CC(C)C)C(=O)NCC(=O)N[C@@H](CCCNC(=N)N)C(=O)N[C@@H](CC(C)C)C(=O)N[C@@H](CO)C(=O)N[C@@H](C)C(=O)N[C@@H](CCC(=O)O)C(=O)N[C@@H](CC(C)C)C(=O)N[C@@H](Cc1c[nH]cn1)C(=O)N[C@@H](CCC(=O)O)C(=O)N[C@@H](CC(C)C)C(=O)N[C@@H](C)C(=O)N[C@H](C(=O)N[C@@H](CC(C)C)C(=O)N1CCC[C@H]1C(=O)N[C@@H](CCCNC(=N)N)C(=O)N[C@H](C(=O)N[C@@H](CCC(=O)O)C(=O)N[C@H](C(=O)NCC(=O)N[C@@H](CO)C(=O)NCC(=O)N[C@@H](CO)C(=O)N1CCC[C@H]1C(N)=O)[C@@H](C)O)[C@@H](C)O)[C@@H](C)O)[C@@H](C)O)C(C)C` [Compound 0105] are 1.1 pM and 30.8 pM.
As to “H-H[Aib]EGTFTSDVSSYLEGQAAK([AEEA-AEEA-γGlu-C18 diacid])EFIAWLVRGRGGQEPGQEPK([γGlu-γGlu-C20 diacid])CNTATCATQRLADFLRHSSPNFGAIPSSTNVGSRTY-NH2 (disulfide 41-46) [Comparator compound 0668, reference compound]”, the “Ability to agonise the amylin receptor, in words” value in assay [1] (Tables 4a-4c) is “do not activate the amylin receptor”.
Regarding “H-H[Aib]EGTFTSDVSSYLEEQAARK([γGlu-C18 diacid])FIAWLVRGRGGGGGGGGK([γGlu-C18 diacid])EASELSTAALGRLSAELHELATLPRTETGSGSP-NH2 [Compound 0160]”, the EC50 was 11.9 pM at human GLP-1 receptor and 27.3 pM in assay [1].
On the same counts, the results for “H-H[Aib]EGTFTSDVSK([AEEA-X1])YLEEQAAREFIAWLVRGRGGGGGEASELSTAALGRLSAELHELATLPRTETGSGSP-NH2 [Compound 0564]” are 24.5 pM and 14.5 pM.
On the same counts, the results for “HWEGTFTSDVSSYLEEK([AEEA-AEEA-γGlu-C18 diacid])AAREFIEWLVRGRGEASELSTAALGRLSAELHELATLPRTETGSGSP-NH2 [Compound 0271]” are 4.6 pM and 15.2 pM.
On the same counts, the results for “H-H[Aib]EGTFTSDVSSYLEEQAAREFIAWLVRGRK([AEEA-AEEA-γGlu-Hexadecanoyl(16-SO3H)])GGGGEASELSTAALGRLSAELHELATLPRTETGSGSP-NH2 [Compound 0654]” are 2.9 pM and 11.3 pM.
For “H[Aib]EGTFTSDVSSYLEEQAARK([AEEA-AEEA-γGlu-C16 diacid])FIAWLVRGRGGK([AEEA-AEEA-γGlu-C16 diacid])EASELSTAALGRLSAELHELATLPRTETGSGSP-NH2 [Compound 0074]”, the EC50 in assay [1] stood at 60.9 pM.
On the same count and under the same terms, the same measure for `CC[C@H](C)[C@H](NC(=O)[C@H](Cc1ccccc1)NC(=O)[C@H](CCCCNC(=O)COCCOCCNC(=O)COCCOCCNC(=O)CC[C@H](NC(=O)CCCCCCCCCCCCCCCCC(=O)O)C(=O)O)NC(=O)[C@H](CCCNC(=N)N)NC(=O)[C@H](C)NC(=O)[C@H](C)NC(=O)[C@H](CCC(N)=O)NC(=O)[C@H](CCC(=O)O)NC(=O)[C@H](CCC(=O)O)NC(=O)[C@H](CC(C)C)NC(=O)[C@H](Cc1ccc(O)cc1)NC(=O)[C@H](CO)NC(=O)[C@H](CO)NC(=O)[C@@H](NC(=O)[C@H](CC(=O)O)NC(=O)[C@H](CO)NC(=O)[C@@H](NC(=O)[C@H](Cc1ccccc1)NC(=O)[C@@H](NC(=O)CNC(=O)[C@H](CCC(=O)O)NC(=O)C(C)(C)NC(=O)[C@@H](N)Cc1c[nH]cn1)[C@@H](C)O)[C@@H](C)O)C(C)C)C(=O)N[C@@H](CCC(=O)O)C(=O)N[C@@H](Cc1c[nH]c2ccccc12)C(=O)N[C@@H](CC(C)C)C(=O)N[C@H](C(=O)N[C@@H](CCCNC(=N)N)C(=O)NCC(=O)N[C@@H](CCCCNC(=O)COCCOCCNC(=O)COCCOCCNC(=O)CC[C@H](NC(=O)CCCCCCCCCCCCCCCCC(=O)O)C(=O)O)C(=O)NCC(=O)N[C@@H](CCC(=O)O)C(=O)NCC(=O)N[C@@H](CCC(N)=O)C(=O)N[C@@H](CCC(=O)O)C(=O)N1CCC[C@H]1C(=O)NCC(=O)NCC(=O)N[C@@H](C)C(=O)N[C@@H](CO)C(=O)N[C@@H](CCC(=O)O)C(=O)N[C@@H](CC(C)C)C(=O)N[C@@H](CO)C(=O)N[C@H](C(=O)N[C@@H](C)C(=O)N[C@@H](C)C(=O)N[C@@H](CC(C)C)C(=O)NCC(=O)N[C@@H](CCCNC(=N)N)C(=O)N[C@@H](CC(C)C)C(=O)N[C@@H](CO)C(=O)N[C@@H](C)C(=O)N[C@@H](CCC(=O)O)C(=O)N[C@@H](CC(C)C)C(=O)N[C@@H](Cc1c[nH]cn1)C(=O)N[C@@H](CCC(=O)O)C(=O)N[C@@H](CC(C)C)C(=O)N[C@@H](C)C(=O)N[C@H](C(=O)N[C@@H](CC(C)C)C(=O)N1CCC[C@H]1C(=O)N[C@@H](CCCNC(=N)N)C(=O)N[C@H](C(=O)N[C@@H](CCC(=O)O)C(=O)N[C@H](C(=O)NCC(=O)N[C@@H](CO)C(=O)NCC(=O)N[C@@H](CO)C(=O)N1CCC[C@H]1C(N)=O)[C@@H](C)O)[C@@H](C)O)[C@@H](C)O)[C@@H](C)O)C(C)C` [Compound 0106]: 28.4 pM; for “H-H[Aib]EGTFTSDVSSYLEEQAARK([AEEA-AEEA-γGlu-γGlu-γGlu-C20 diacid])FIEWLVRGRQEAASELSTAALGRLSAELHQLATLPRTETGSGSP-NH2 [Compound 0636]”: 8.5 pM.

Source of the values: US20230331803A1, “CO-AGONISTS OF THE GLP-1 AND AMYLIN RECEPTORS” (priority 2020, published 2023).
